Source: PMC6832219, “Synthesis of Novel Baicalein Amino Acid Derivatives and Biological Evaluation as Neuroprotective Agents” (Molecules, 2019)

Assays:
[1] = tested on: injured SH-SY5Y cells; test: Protective effect against tert-butyl hydroperoxide-induced SH-SY5Y neurotoxicity cells (MTT assay); format: cell-based; conditions: Homo sapiens; for viability at 3.125 µM / viability at 6.25 µM / viability at 12.5 µM / viability at 25 µM / viability at 50 µM: injured SH-SY5Y cells, read-out: Proliferation Rate (%); for EC50: tert-butyl hydroperoxide-induced SH-SY5Y neurotoxicity, read-out: EC50 for protecting injured SH-SY5Y cells;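 for Proliferation Rate (%): 0% equals CoCl2-injured cells and 100% equals NGF-treated cells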
Protocol: The protective effects of baicalein derivatives in vitro was evaluated against tert-butyl, hydroperoxide-induced, SH-SY5Y neurotoxicity cells using an MTT assay. In addition, their toxicity evaluation was tested on normal H9C2 cells. The resulting proliferation rates (%) at different concentrations, as well as their 50% effective concentrations (EC50) for protecting damaged SH-SY5Y cells of the baicalein amino acid derivatives, are summarized in Table 2.
(§1) The SH-SY5Y ([…]) and H9C2 ([…]) cell lines were obtained from the Chinese Academy of Medical Sciences and Peking Union Medical College. All of the cell lines were grown in dulbecco’s modified eagle medium (DMEM) with 10% (v/v) fetal bovine serum (FBS) and 1% (v/v) penicillin/streptomycin (Thermo Technologies, New York, NY, USA), under a humidified atmosphere containing 5% CO2 at 37 °C. The baicalein derivatives were dissolved in DMSO (Sigma, St. Louis, MO, USA) and added at various concentrations to the cell culture.
(§2) The protective effect of these compounds was evaluated on SH-SY5Y and H9C2 cell lines via the MTT method. The cells growing in the logarithmic phase were cultured in 96-well plates at a density 3 × 10^3 cells/well and incubated for 24 h. Then each well was treated with the required concentrations (50 µM concentrations, 25 µM concentrations, 12.5µM concentrations, 6.25 µM concentrations, and 3.125 µM concentrations) of baicalein derivatives, and incubated 36 h at 37 °C with 5% CO2. After that, the cells were induced by H2O2 (final concentration, […]) for 12 h. Control-differentiated cells were injected with new growth media at equal amounts. Before […] MTT solution (5 mg/mL) was added to each well, the cell culture fluid was discarded, and […] fresh cell culture fluid was added. The plate was incubated for a further 4 h at 37 °C. The cell supernatant medium was removed carefully, without disturbing the attached cells, and formazan crystals were solubilized by adding 150 μL DMSO into each well. The absorbance was measured at 490 nm with a plate reader (BIORAD 550 spectrophotometer, Bio-rad Life Science Development Ltd., Beijing, China). H2O2 was dissolved in DMEM medium. Wells without drugs were used as blanks. The EC50 values were defined as the concentrations that causes the maximum effect of 50%; IC50 values were defined as the concentration of compound which gives 50% growth inhibition, and were calculated using the GraphPad Prism 5. The proliferation rates of damaged SH-SY5Y cells were calculated in the following formula (1): [OD490 (compound) − OD490 (CoCl2)]/[OD490 (NGF) − OD490 (CoCl2)] × 100%(1) The EC50 values were using the equation −pEC50 = log Cmax − log 2 × (ΣP − 0.75 + 0.25Pmax + 0.25Pmin)(2) where Cmax is the maximum concentration, ΣP is the sum of proliferation rates, Pmax is the maximum value of the proliferation rate, and Pmin is the minimum value of the proliferation rate. Cell viability was expressed as a percentage of the control.

[2] = tested on: H9C2 cells; test: Toxicity on normal H9C2 cells (MTT assay); format: cell-based; conditions: MTT; for viability at 6.25 µM / viability at 12.5 µM / viability at 25 µM / viability at 50 µM: H9C2 cells, read-out: Survival Rate (%); for IC50: normal H9C2 cells
Protocol: To study cytotoxicity on normal cells, the cytotoxicity of compounds against normal H9C2 cells were tested.
as §1, §2
The inhibition rate was calculated in the following equation: % inhibition = 1 − (Sample group OD/Control group OD) × 100%(3)

[3] = tested on: H9C2 cells; test: Toxicity on normal H9C2 cells (MTT assay); format: cell-based; conditions: read-out: Survival Rate (%)

Compound | melting point [°C] | viability at 3.125 µM [1] [%] | viability at 6.25 µM [1] [%] | viability at 12.5 µM [1] [%] | viability at 25 µM [1] [%] | viability at 50 µM [1] [%] | EC50 [1] [µM] | viability at 6.25 µM [2] [%] | viability at 12.5 µM [2] [%] | viability at 25 µM [2] [%] | viability at 50 µM [2] [%] | IC50 [2] [µM] | viability at 100 µM [3] [%]
CC(NC(=O)OC(C)(C)C)C(=O)Oc1c(O)cc2oc(-c3ccccc3)cc(=O)c2c1O (stereo not shown) [Compound 14, 5,7-dihydroxy-4-oxo-2-phenyl-4H-chromen-6-yl 2-{[(tert-butoxy)carbonyl]amino} propanoate] | 196.7 | 0.35 | 3.34 | 7.09 | 4.09 | 0.1 | 74.9 | 185 | 166 | 137 | 129 | > 100 | 97.1
CC(C)(C)OC(=O)NC(Cc1ccccc1)C(=O)Oc1c(O)cc2oc(-c3ccccc3)cc(=O)c2c1O (stereo not shown) [Compound 6, 5,7-dihydroxy-4-oxo-2-phenyl-4H-chromen-6-yl 2-{[(tert-butoxy)carbonyl]amino}-3-phenylpropanoate] |  | 8.61 | 20 | 24.8 | 21.6 | 16.7 | 42 | 157 | 154 | 154 | 137 | > 100 | 122
CC(C)(C)C(NC(=O)OCc1ccccc1)C(=O)Oc1c(O)cc2oc(-c3ccccc3)cc(=O)c2c1O (stereo not shown) [Compound 3, 5,7-dihydroxy-4-oxo-2-phenyl-4H-chromen-6-yl 2-{[(benzyloxy)carbonyl]amino}-3,3-dimethylbutanoate] | 170.1 | 15.3 | 14.8 | 8.1 | 0.15 | -0.18 | 62.4 | 144 | 137 | 135 | 132 | > 100 | 104

Second part, led by results:

melting point [°C] | Compound | viability at 3.125 µM [1] [%] | viability at 6.25 µM [1] [%] | viability at 12.5 µM [1] [%] | viability at 25 µM [1] [%] | viability at 50 µM [1] [%] | EC50 [1] [µM] | viability at 6.25 µM [2] [%] | viability at 12.5 µM [2] [%] | viability at 25 µM [2] [%] | viability at 50 µM [2] [%] | IC50 [2] [µM] | viability at 100 µM [3] [%]
199.7 | CC(C)C(NC(=O)OCc1ccccc1)C(=O)Oc1c(O)cc2oc(-c3ccccc3)cc(=O)c2c1O (stereo not shown) [Compound 1, 5,7-dihydroxy-4-oxo-2-phenyl-4H-chromen-6-yl 2-{[(benzyloxy)carbonyl]amino}-3-methylbutanoate] | 56 | 84.3 | 81.8 | 67.3 | 54.9 | 6.07 | 270 | 260 | 231 | 216 | > 100 | 204
144.9 | O=C(NCCCCC(NC(=O)OCc1ccccc1)C(=O)Oc1cc2oc(-c3ccccc3)cc(=O)c2c(O)c1O)OCc1ccccc1 (stereo not shown) [Compound 12, 5,6-dihydroxy-4-oxo-2-phenyl-4H-chromen-7-yl 2,6-di{[(benzyloxy)carbonyl]amino} hexanoate] | 1.1 | 2.35 | 7.83 | 20.8 | 7.34 | 61.6 | 216 | 207 | 200 | 187 | > 100 | 184
